Data published in article PMC8459971, “Evaluation of the hepatotoxicity of the novel GPR40 (FFAR1) agonist CPL207280 in the rat and monkey” (PLoS ONE, 2021).
Values joined by “and” are separate entries in the source; they are usually repeats but may differ in a detail not shown here. Equal values may be shown once. Read-outs that look alike come from different tables or passages of the source.

Columns and labels:
[1] = summary table, literature; cited from earlier work
[2] = Stability in cryopreserved hepatocytes, human; format: in vitro ADME; conditions: for Compound Remaining (% of 0 min): Hepatocyte Stability Human, single replicates
Method: The final incubation volume was 500 μL. Two control compounds (verapamil and donepezil) were included for each microsomal species, along with the appropriate vehicle control. The reactions were terminated by transferring 50 μL of incubate to 100 μL methanol containing an internal standard (metoprolol) at appropriate time points (0, 10, 20, 40, 60, and 120 min for the test compound and 0, 5, 10, 20, 40, and 60 min for the control compounds). The termination plates were centrifuged at 4000 x g at 4°C for 30 min to precipitate the protein. The supernatants were then collected for analysis, and LC-MS/MS was used for detection purposes. The system consisted of an Acquity™ Binary Solvent Manager, Acquity™ 4-position heated column manager, 2777 Ultra High Pressure Autosampler, and a Xevo-TQ MS triple quadrupole mass spectrometer (Waters Ltd., Herts, UK). This process was carried out twice.

[3] = tested on: HepaRG spheroids; assay: HepaRG 3D spheroids, cell and mitochondrial health markers, 14 days; conditions: for AC50: Homo sapiens, HepaRG
Method: Hepatic spheroids were formed by seeding HepaRG™ cells into round-bottom ultra-low adhesion 96-well spheroid plates (Corning®) in 3D liver media with 0.5% DMSO, 100 U/mL penicillin, and 100 mg/L streptomycin. Cells were incubated at 37°C and 5% CO2 until spheroid formation and then compound-treated. The test compound was diluted in the vehicle, and serial dilutions were made in a 0.5% vehicle in HepaRG™ induction media. […] L-buthionine sulfoximine was used as positive control for GSH content, whereas rotenone was simultaneously used as a positive control for mitochondrial dysfunction and ATP content. At the end of the incubation period, the cells were loaded with the relevant dye for each cell health marker: DNA structure–Hoescht, GSH content–mBCL, ROS formation–DHE, mitochondrial dysfunction–MitoTracker, and cellular ATP content–CellTiter-Glo®, Promega. The plate was then scanned using an automated confocal fluorescent cellular imager, ArrayScan® XTI (Thermo Scientific Cellomics) at 37°C and 5% CO2. Further, the cellular ATP content was measured using CellTiter-Glo® (Promega, USA).

[4] = cryopreserved hepatocytes (suspension), Human hepatocytes, mean n = 2

For `Cc1cc(OCCCS(C)(=O)=O)cc(C)c1-c1cccc(COc2ccc3c(c2)OC[C@H]3CC(=O)O)c1` [TAK-875, fasiglifam, reference compound], the “Acyl glucuronide presence in human hepatocytes” value [1] is given as “Yes”.
With `CC#C[C@@H](CC(=O)O)c1ccc(OCC(C)=C(C)C)cc1` [CPL207280] the “Compound Remaining (% of 0 min)” value ([2]; 0 min) was 100 % of 0 min, the “Compound Remaining (% of 0 min)” value ([2]; 10 min) was 73.2 % of 0 min and 74.0 % of 0 min and the “Compound Remaining (% of 0 min)” value ([2]; 20 min) was 42.2 % of 0 min and 46.1 % of 0 min. The “Compound Remaining (% of 0 min)” value ([2]; 40 min) was 20.6 % of 0 min and 16.0 % of 0 min, the “Compound Remaining (% of 0 min)” value ([2]; 60 min) was 10.5 % of 0 min and 7.67 % of 0 min and the “Compound Remaining (% of 0 min)” value ([2]; 120 min) was 3.07 % of 0 min and 1.62 % of 0 min. For the same compound, the half-life at 3 μM [2, 4] was 17 min, the microsomal CLint at 3 μM [2, 4] was 82.8 µL/min/mg and the “Cellular ATP Mean Plotted Value” ([3]; CONC 0.0457 uM, TIMEPOINT 336) was 0.883. The “DNA structure Mean Plotted Value” ([3]; CONC 0.0457 uM, TIMEPOINT 336) was 1.26, the “Glutathione content Mean Plotted Value” ([3]; CONC 0.0457 uM, TIMEPOINT 336) was 0.866 and the “Mitochondrial mass Mean Plotted Value” ([3]; CONC 0.0457 uM, TIMEPOINT 336) was 0.982. The “Mitochondrial membrane potential Mean Plotted Value” ([3]; CONC 0.0457 uM, TIMEPOINT 336) was 1.25, the “Oxidative stress Mean Plotted Value” ([3]; CONC 0.0457 uM, TIMEPOINT 336) was 1.15 and the “Spheroid count Mean Plotted Value” ([3]; CONC 0.0457 uM, TIMEPOINT 336) was 1. The “Spheroid size Mean Plotted Value” ([3]; CONC 0.0457 uM, TIMEPOINT 336) was 0.924, the “Cellular ATP Mean Plotted Value” ([3]; CONC 0.137 uM, TIMEPOINT 336) was 1.01 and the “DNA structure Mean Plotted Value” ([3]; CONC 0.137 uM, TIMEPOINT 336) was 1.14. For the same compound, the “Glutathione content Mean Plotted Value” ([3]; CONC 0.137 uM, TIMEPOINT 336) was 1.11, the “Mitochondrial mass Mean Plotted Value” ([3]; CONC 0.137 uM, TIMEPOINT 336) was 0.911 and the “Mitochondrial membrane potential Mean Plotted Value” ([3]; CONC 0.137 uM, TIMEPOINT 336) was 0.948. For the same compound, the “Oxidative stress Mean Plotted Value” ([3]; CONC 0.137 uM, TIMEPOINT 336) was 1.02, the “Spheroid count Mean Plotted Value” ([3]; CONC 0.137 uM, TIMEPOINT 336) was 1 and the “Spheroid size Mean Plotted Value” ([3]; CONC 0.137 uM, TIMEPOINT 336) was 0.943. The “Cellular ATP Mean Plotted Value” ([3]; CONC 0.412 uM, TIMEPOINT 336) was 1.03, the “DNA structure Mean Plotted Value” ([3]; CONC 0.412 uM, TIMEPOINT 336) was 1.12 and the “Glutathione content Mean Plotted Value” ([3]; CONC 0.412 uM, TIMEPOINT 336) was 1.09. The “Mitochondrial mass Mean Plotted Value” ([3]; CONC 0.412 uM, TIMEPOINT 336) was 1, the “Mitochondrial membrane potential Mean Plotted Value” ([3]; CONC 0.412 uM, TIMEPOINT 336) was 0.994 and the “Oxidative stress Mean Plotted Value” ([3]; CONC 0.412 uM, TIMEPOINT 336) was 1.02. The “Spheroid count Mean Plotted Value” ([3]; CONC 0.412 uM, TIMEPOINT 336) was 1, the “Spheroid size Mean Plotted Value” ([3]; CONC 0.412 uM, TIMEPOINT 336) was 0.942 and the “Cellular ATP Mean Plotted Value” ([3]; CONC 3.7 uM, TIMEPOINT 336) was 0.907. The “DNA structure Mean Plotted Value” ([3]; CONC 3.7 uM, TIMEPOINT 336) was 0.692, the “Glutathione content Mean Plotted Value” ([3]; CONC 3.7 uM, TIMEPOINT 336) was 0.924 and the “Mitochondrial mass Mean Plotted Value” ([3]; CONC 3.7 uM, TIMEPOINT 336) was 0.944. For the same compound, the “Mitochondrial membrane potential Mean Plotted Value” ([3]; CONC 3.7 uM, TIMEPOINT 336) was 0.773, the “Oxidative stress Mean Plotted Value” ([3]; CONC 3.7 uM, TIMEPOINT 336) was 1.02 and the “Spheroid count Mean Plotted Value” ([3]; CONC 3.7 uM, TIMEPOINT 336) was 1. The “Spheroid size Mean Plotted Value” ([3]; CONC 3.7 uM, TIMEPOINT 336) was 0.935, the “Cellular ATP Mean Plotted Value” ([3]; CONC 33.3 uM, TIMEPOINT 336) was 0.845 and the “DNA structure Mean Plotted Value” ([3]; CONC 33.3 uM, TIMEPOINT 336) was 0.889. For the same compound, the “Glutathione content Mean Plotted Value” ([3]; CONC 33.3 uM, TIMEPOINT 336) was 0.907, the “Mitochondrial mass Mean Plotted Value” ([3]; CONC 33.3 uM, TIMEPOINT 336) was 0.989 and the “Mitochondrial membrane potential Mean Plotted Value” ([3]; CONC 33.3 uM, TIMEPOINT 336) was 0.908. For the same compound, the “Oxidative stress Mean Plotted Value” ([3]; CONC 33.3 uM, TIMEPOINT 336) was 1.13, the “Spheroid count Mean Plotted Value” ([3]; CONC 33.3 uM, TIMEPOINT 336) was 1 and the “Spheroid size Mean Plotted Value” ([3]; CONC 33.3 uM, TIMEPOINT 336) was 0.953. For the same compound, the “Cellular ATP Mean Plotted Value” ([3]; CONC 100 uM, TIMEPOINT 336) was 0.491, the “DNA structure Mean Plotted Value” ([3]; CONC 100 uM, TIMEPOINT 336) was 0.692 and the “Glutathione content Mean Plotted Value” ([3]; CONC 100 uM, TIMEPOINT 336) was 0.767. For the same compound, the “Mitochondrial mass Mean Plotted Value” ([3]; CONC 100 uM, TIMEPOINT 336) was 0.865, the “Mitochondrial membrane potential Mean Plotted Value” ([3]; CONC 100 uM, TIMEPOINT 336) was 0.94 and the “Oxidative stress Mean Plotted Value” ([3]; CONC 100 uM, TIMEPOINT 336) was 1.13. The “Spheroid count Mean Plotted Value” ([3]; CONC 100 uM, TIMEPOINT 336) was 1, the “Spheroid size Mean Plotted Value” ([3]; CONC 100 uM, TIMEPOINT 336) was 0.861 and the “Cellular ATP MEC” value ([3]; HepaRG spheroid, TIMEPOINT 336) was 24.8 (NS) uM. For the same compound, the “Cellular ATP MR (% @ concentration)” value ([3]; HepaRG spheroid, TIMEPOINT 336, at the concentration (uM) given) was 48%, the “Cellular ATP MR” value ([3]; HepaRG spheroid, TIMEPOINT 336, plotted value at the concentration given) was 0.491 and the AC50 ([3]; 336 h, read-out: Estimated AC50 (95% CI), Cellular ATP) was over 100 µM. It also gave an AC50 ([3]; 336 h, read-out: Estimated AC50 (95% CI), DNA structure) of over 100 µM, an AC50 ([3]; 336 h, read-out: Estimated AC50 (95% CI), Glutathione content) of over 100 µM and an AC50 ([3]; 336 h, read-out: Estimated AC50 (95% CI), Mitochondrial mass) of over 100 µM. It also gave an AC50 ([3]; 336 h, read-out: Estimated AC50 (95% CI), Mitochondrial membrane potential) of over 100 µM, an AC50 ([3]; 336 h, read-out: Estimated AC50 (95% CI), Oxidative stress) of over 100 µM and an AC50 ([3]; 336 h, read-out: Estimated AC50 (95% CI), Spheroid count) of over 100 µM. The AC50 ([3]; 336 h, read-out: Estimated AC50 (95% CI), Spheroid size) was over 100 µM, the AC50 ([3]; read-out: DNA structure AC50) was over 100 µM and the AC50 ([3]; read-out: Glutathione content AC50) was over 100 µM. It also gave an AC50 ([3]; read-out: Mitochondrial mass AC50) of over 100 µM, an AC50 ([3]; read-out: Mitochondrial membrane potential AC50) of over 100 µM and an AC50 ([3]; read-out: Oxidative stress AC50) of over 100 µM. For the same compound, the AC50 ([3]; read-out: Spheroid count AC50) was over 100 µM, the AC50 ([3]; read-out: Spheroid size AC50) was over 100 µM and the “Mitochondria Injury” value ([3]; summary comparison CPL207280 vs TAK-875) was “<”.
